# Reference: US12390447B2, “Sirtuin 6 protein deacylase (SIRT6) activators” (Wisconsin Alumni Research Foundation, priority 2019, dated 2025)
# Molecular target: SIRT6 (Homo sapiens, UniProt Q8N6T7)
# Test: SIRT6 deacetylation of H3K9ac peptide, fold-activation versus activator concentration
# Assay type: biochemical
# Conditions: for EC50: H3K9ac peptide 20 μM
# Description: (1A) Compound libraries BML-2803, BML-2800, and an additional set of 178 molecules were screened at 100 μM for their ability to stimulate SIRT6 (1 μM) deacetylation of H3K9ac peptide (20 μM) in the presence of 0.5 mM NAD^+. SIRT6 activity was measured by HPLC quantification of H3K9ac and deacetylated product (inset) and fold activations relative to DMSO control were determined and compiled. (1B) Fold-activation of SIRT6 (1 μM) determined in the presence of either 0-400 μM CL4, 0-150 μM TTNPB, 0-100 μM Lysophosphatidic acid (LPA), or 0-200 μM linoleoylglycine (LGly). Maximum fold-activation and EC50 determined by sigmoidal curve fit. (1C) Steady-state kinetic analysis of SIRT6 (1 μM) deacetylation was conducted with 0-250 μM H3K9ac peptide in the presence of 100 μM CL4, 50 μM TTNPB, 50 μM LPA, or 50 μM LGly. Constants Km, H3K9ac and kcat were determined by fitting data to Michaelis-Menten equation. (1D) Fold-activations of SIRT1 (0.1 μM), SIRT2 (0.2 μM), SIRT3 (1 μM), SIRT5 (2 μM), and SIRT6 (1 μM) determined in the presence of CL4 (100 μM), TTNPB (50 μM), and LPA (50 μM) relative to DMSO control against 20 μM H3K9ac peptide and 0.5 mM NAD^+. Mean values reported with error bars representing standard deviation of at least three replicates.
# All sirtuin deacylation assays were carried out at 37° C. in 20 mM potassium phosphate pH 7.5 with 0.5 mM NAD^+, 10% DMSO, and 20 μM H3K9ac or H3K9myr peptides, unless otherwise noted in legend, and quenched by the addition of 2% TFA final. Steady-state reactions were constrained to less than 20% substrate turnover to prevent product inhibition. A variety of times were required to monitor SIRT6 deacetylation (2-60 minutes) under this restraint given the ability to strongly activate catalysis. In these cases, specific activities were determined and either reported as is or as fold-activation of specific activity. Deacylation reactions were analyzed by reversed phase high-performance liquid chromatography on a Kinetex C18 column (100 Å, 100×4.6 mm, 2.6 μm, Phenomenex) by monitoring the formation of the deacylated product at 214 nm. Deacetylation reactions were analyzed using a gradient of 33-100% B (30% acetonitrile with 0.05% TFA) in 8 min at 1.6 mL min^−1. Demyristoylation reactions were analyzed using a gradient of 3 to 100% B (acetonitrile with 0.05% TFA) in 10 min at 1.6 mL min^−1. The product and substrate peaks were quantified and ratio of these allowed for quantification of product formation. […]
# [1] = SIRT6 1 μM, 0.5 mM NAD+, sigmoidal curve fit
# Chain of SIRT6 (Q8N6T7 whole entry): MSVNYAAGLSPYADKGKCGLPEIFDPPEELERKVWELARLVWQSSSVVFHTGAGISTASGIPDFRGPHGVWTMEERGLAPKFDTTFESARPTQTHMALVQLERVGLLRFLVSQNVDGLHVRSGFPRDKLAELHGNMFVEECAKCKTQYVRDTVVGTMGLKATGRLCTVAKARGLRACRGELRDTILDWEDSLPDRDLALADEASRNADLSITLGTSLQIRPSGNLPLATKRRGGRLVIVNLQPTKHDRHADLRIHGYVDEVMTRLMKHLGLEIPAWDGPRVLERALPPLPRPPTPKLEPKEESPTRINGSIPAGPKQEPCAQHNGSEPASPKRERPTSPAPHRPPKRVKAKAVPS
"concentration required to stimulate 4-fold activation of SIRT6 (SIRT6 1 μM, H3K9ac 20 μM, 0.5 mM NAD+) [µM]",EC50 [1] [µM],SIRT6 deacetylase activity at high activator concentration (400 μM compound),increased potency over CL-4 (by concentration required for 4-fold activation of SIRT6 deacetylase activity) [fold],"FAmax (maximum fold-activation) (SIRT6 1 μM, sigmoidal curve fit) [fold]",Compound
35,97 ± 2,,,,"O=C(O)c1ccc2c(c1)C(=O)N(c1ccc(NC(=O)c3ccc(Cl)cc3Cl)c(Cl)c1)C2=O [CL-4, 2-(3-chloro-4-(2,4-dichlorobenzamido)phenyl)-1,3-dioxoisoindoline-5-carboxylic acid]"
,,inhibited,7,,"O=C(O)c1ccc2c(c1)C(=O)N(c1ccc(N(C(=O)c3c(Cl)cc(Cl)cc3Cl)C(=O)c3c(Cl)cc(Cl)cc3Cl)c(Cl)c1)C2=O [CL-5D, 2-(3-chloro-4-(2,4,6-trichloro-N-(2,4,6-trichlorobenzoyl)benzamido)phenyl)-1,3-dioxoisoindoline-5-carboxylic acid]"
,88 ± 4,,,17 ± 0.8,"CCCCC/C=C\C/C=C\CCCCCCCC(=O)NCC(=O)O [N-Linoleoylglycine, linoleoyl-glycine, reference compound]"
